Results taken from PubChem BioAssay AID192 (DTP/NCI, 2004).
Where “and” joins values, the source holds several entries; their conditions need not be identical. Identical values can stand only once. Inconclusive results and toxic doses are left out. Rule for the calls: active = survival T/C of 150% or more; inactive = T/C below 125% in these data.

Tested on: BDF1 mice, B16 melanoma ip, median survival T/C
Test: NCI In Vivo Anticancer Drug Screen. Data for tumor model B16 Melanoma (intraperitoneal) in B6D2F1 (BDF1) mice
Details: endpoint: median survival time, higher = longer survival
In short: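 Mice with transplantable tumors; drug vs vehicle groups; endpoint survival or tumor size; value = T/C.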

[1] = dose: 100.0 mg/kg/injection, schedule: Q01DX009 (ip), vehicle: Klucel (hydroxypropylcellulose) (HPC)
[2] = dose: 25.0 mg/kg/injection, schedule: Q01DX009 (ip), vehicle: saline
[3] = dose: 200.0 mg/kg/injection, schedule: Q01DX009 (ip), vehicle: Klucel (hydroxypropylcellulose) (HPC)
[4] = dose: 6.25 mg/kg/injection, schedule: Q01DX009 (ip), vehicle: saline
[5] = dose: 12.5 mg/kg/injection, schedule: Q01DX009 (ip), vehicle: saline
[6] = dose: 1.56 mg/kg/injection, schedule: Q01DX009 (ip), vehicle: saline
[7] = dose: 400.0 mg/kg/injection, schedule: Q01DX009 (ip), vehicle: Klucel (hydroxypropylcellulose) (HPC)

Measured: T/C

Nc1ccccc1SC1CC(=O)N(c2ccccc2)C1=O (stereo unspecified)
inactive: dose: 25.0 mg/kg/injection, schedule: Q01DX009 (ip), vehicle: Klucel (hydroxypropylcellulose) (HPC) 97 % of control | dose: 50.0 mg/kg/injection, schedule: Q01DX009 (ip), vehicle: Klucel (hydroxypropylcellulose) (HPC) 91 % of control | [1] 90 % of control and 92 % of control

CN1CN(C)CN(C)C1
inactive: [2] 118 % of control

CCCCNC(=O)Nc1ccc(CC)cc1
inactive: [1] 100 % of control | [3] 91 % of control

Cc1ccc(S(=O)(=O)OC2CCN(C)CC2)cc1
inactive: dose: 3.0 mg/kg/injection, schedule: Q04DX003 (ip), vehicle: Klucel (hydroxypropylcellulose) (HPC) 90 % of control | dose: 6.0 mg/kg/injection, schedule: Q04DX003 (ip), vehicle: Klucel (hydroxypropylcellulose) (HPC) 86 % of control | [4] 100 % of control | dose: 6.25 mg/kg/injection, schedule: Q04DX003 (ip), vehicle: saline 94 % of control | [5] 100 % of control | dose: 12.5 mg/kg/injection, schedule: Q04DX003 (ip), vehicle: saline 97 % of control | [2] 100 % of control | dose: 25.0 mg/kg/injection, schedule: Q04DX003 (ip), vehicle: saline 94 % of control

COc1ccc(/C=N/n2c3ccccc3c3ccccc32)cc1OCCCN(C)C
inactive: dose: 0.39 mg/kg/injection, schedule: Q01DX009 (ip), vehicle: saline 120 % of control | dose: 0.78 mg/kg/injection, schedule: Q01DX009 (ip), vehicle: saline 102 % of control | [6] 112 % of control | dose: 3.12 mg/kg/injection, schedule: Q01DX009 (ip), vehicle: saline 105 % of control | [4] 105 % of control | dose: 12.5 mg/kg/injection, schedule: Q01DX009 (ip), vehicle: Klucel (hydroxypropylcellulose) (HPC) 97 % of control

CCC(NC(=O)OC(C)(C)C)C(=O)O (stereo unspecified)
inactive: [4] 100 % of control | [5] 95 % of control | [2] 95 % of control | dose: 50.0 mg/kg/injection, schedule: Q01DX009 (ip), vehicle: saline 88 % of control and 96 % of control

Cc1cccc(C)c1NC(=O)Nc1ccc(Cl)cc1
inactive: [1] 93 % of control | [3] 93 % of control | [7] 87 % of control

CCC(C)C1NC(=O)C(NC(=O)c2c3[nH]c4c(C(=O)NC5C(=O)NC(C(C)CC)C(=O)N6CCCC6C(=O)N(C)CC(=O)N(C)C(C(C)C)C(=O)OC5C)ccc(C)c4oc-3c(C)c(=O)c2=O)C(C)OC(=O)C(C(C)C)N(C)C(=O)CN(C)C(=O)C2CCCN2C1=O (stereo unspecified)
inactive: dose: 0.05 mg/kg/injection, schedule: Q01DX009 (ip), vehicle: water 98 % of control | dose: 0.1 mg/kg/injection, schedule: Q01DX009 (ip), vehicle: water 102 % of control | dose: 0.2 mg/kg/injection, schedule: Q01DX009 (ip), vehicle: water 97 % of control | dose: 0.4 mg/kg/injection, schedule: Q01DX009 (ip), vehicle: water 103 % of control | dose: 0.8 mg/kg/injection, schedule: Q01DX009 (ip), vehicle: water 100 % of control | dose: 1.6 mg/kg/injection, schedule: Q01DX009 (ip), vehicle: water 101 % of control

Cc1nc(/N=N/c2nc(C)c(C)[nH]2)[nH]c1C
inactive: [1] 102 % of control | [3] 101 % of control | [7] 96 % of control

C[CH2][Pb]([CH2]C)([CH2]C)[n]1cnc2ccccc21
inactive: dose: 0.75 mg/kg/injection, schedule: Q01DX009 (ip), vehicle: Klucel (hydroxypropylcellulose) (HPC) 95 % of control | dose: 1.5 mg/kg/injection, schedule: Q01DX009 (ip), vehicle: Klucel (hydroxypropylcellulose) (HPC) 96 % of control

c1ccc(CCN2CCCCC2)nc1
inactive: [6] 109 % of control | dose: 3.13 mg/kg/injection, schedule: Q01DX009 (ip), vehicle: saline 106 % of control | [4] 100 % of control
